# Test results as given in PMC12064818, “A general assay platform to study protein pharmacology using ligand-dependent structural dynamics” (Nature Communications, 2025).
# Where “and” joins values, the source holds several entries; their conditions need not be identical. Equal entries are not always repeated.
# Target: FLuc-C-NLuc (firefly luciferase) (Photinus pyralis, UniProt P08659, form not given/L550V)
# Assay: SDR assay, FLuc-C-NLuc
# Conditions: for SDR + 10 mM ATP / SDR No ATP: 1 nM FLuc-C-NLuc, replicates; for SDR + 10 mM ATP / SDR No ATP / 1 nM FLuc-C-NLuc + 10 mM ATP, Mean / 1 nM FLuc-C-NLuc No ATP, Mean: Log [PTC124]; for SDR assay statistics Ave RLU / SDR assay statistics S:B / SDR assay statistics S:N / SDR assay statistics Z’: 32.8 µM ligand; for 1 nM FLuc-C-NLuc + 10 mM ATP, Mean / 1 nM FLuc-C-NLuc No ATP, Mean: SDR
# Sequence of FLuc-C-NLuc (firefly luciferase) (P08659 2-550 L550V, form open): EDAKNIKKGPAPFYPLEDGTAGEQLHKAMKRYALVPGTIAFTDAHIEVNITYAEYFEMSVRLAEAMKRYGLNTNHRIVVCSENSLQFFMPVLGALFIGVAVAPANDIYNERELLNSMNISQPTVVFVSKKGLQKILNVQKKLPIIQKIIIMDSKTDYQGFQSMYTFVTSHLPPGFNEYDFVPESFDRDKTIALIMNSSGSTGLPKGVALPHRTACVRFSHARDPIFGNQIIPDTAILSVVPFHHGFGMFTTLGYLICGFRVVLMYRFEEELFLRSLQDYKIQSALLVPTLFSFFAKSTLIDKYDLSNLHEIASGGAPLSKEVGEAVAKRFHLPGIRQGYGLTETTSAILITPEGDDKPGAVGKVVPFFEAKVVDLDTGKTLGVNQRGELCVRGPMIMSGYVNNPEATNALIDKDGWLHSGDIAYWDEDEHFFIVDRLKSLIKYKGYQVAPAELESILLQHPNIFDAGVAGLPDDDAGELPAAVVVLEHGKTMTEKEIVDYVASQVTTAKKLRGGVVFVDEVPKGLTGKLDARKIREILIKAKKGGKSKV
smiles,measurement,setting,value
"O=C(O)c1cccc(-c2noc(-c3ccccc3F)n2)c1 [PTC124, reference compound]","pSDR50, FLuc-C-NLuc (1 nM)",0 μM ATP,5.88 ± 0.04
same,SDR + 10 mM ATP,M -4.48,7557.2 RLU and 7497.6 RLU and 7631.5 RLU and 7551.6 RLU and 7524.6 RLU and 7378.2 RLU
same,SDR No ATP,M -4.48,7094.5 RLU and 7036.1 RLU and 7197.7 RLU and 7251.5 RLU and 7107.6 RLU and 7010.0 RLU
same,SDR + 10 mM ATP,M -4.96,8653.1 RLU and 8918.3 RLU and 8729.5 RLU and 8753.4 RLU and 8625.3 RLU and 8631.1 RLU
same,SDR No ATP,M -4.96,7649.4 RLU and 7690.6 RLU and 7782.9 RLU and 7784.7 RLU and 7753.8 RLU and 7789.6 RLU
same,SDR + 10 mM ATP,M -5.44,9503.1 RLU and 9394.8 RLU and 9366.2 RLU and 9511.1 RLU and 9276.8 RLU and 9264.6 RLU
same,SDR No ATP,M -5.44,7463.4 RLU and 7521.3 RLU and 7506.8 RLU and 7660.8 RLU and 7389.5 RLU and 7591.3 RLU
same,SDR + 10 mM ATP,M -5.91,9834.3 RLU and 9880.8 RLU and 9675.2 RLU and 9786.2 RLU and 9362.5 RLU and 9414.4 RLU
same,SDR No ATP,M -5.91,7041.2 RLU and 7015.2 RLU and 7004.0 RLU and 7050.2 RLU and 7076.1 RLU and 7039.0 RLU
same,SDR + 10 mM ATP,M -6.39,9915.0 RLU and 9970.8 RLU and 10012.5 RLU and 10081.2 RLU and 9830.9 RLU and 9904.0 RLU
same,SDR No ATP,M -6.39,6691.1 RLU and 6782.7 RLU and 6754.8 RLU and 6847.3 RLU and 6762.8 RLU and 6799.3 RLU
same,SDR + 10 mM ATP,M -6.87,10082.6 RLU and 10234.0 RLU and 10143.0 RLU and 10158.0 RLU and 9950.0 RLU and 10015.6 RLU
same,SDR No ATP,M -6.87,6611.5 RLU and 6294.6 RLU and 6649.4 RLU and 6762.3 RLU and 6579.8 RLU and 6635.0 RLU
same,SDR + 10 mM ATP,M -7.35,10197.1 RLU and 10347.4 RLU and 10179.3 RLU and 10327.2 RLU and 10158.4 RLU and 10151.6 RLU
same,SDR No ATP,M -7.35,6611.5 RLU and 6675.5 RLU and 6753.6 RLU and 6721.7 RLU and 6667.7 RLU and 6659.2 RLU
same,SDR + 10 mM ATP,M -7.82,10273.2 RLU and 10529.0 RLU and 10260.9 RLU and 10390.3 RLU and 10195.8 RLU and 10173.3 RLU
same,SDR No ATP,M -7.82,6601.3 RLU and 6794.9 RLU and 6657.3 RLU and 6777.0 RLU and 6066.9 RLU and 6627.0 RLU
same,SDR + 10 mM ATP,M -8.30,10428.2 RLU and 10351.9 RLU and 10431.4 RLU and 10340.3 RLU and 10350.0 RLU and 10135.7 RLU
same,SDR No ATP,M -8.30,6797.1 RLU and 6778.7 RLU and 6811.3 RLU and 6783.1 RLU and 6776.8 RLU and 6755.1 RLU
same,SDR + 10 mM ATP,M -8.78,10307.0 RLU and 10240.9 RLU and 10295.8 RLU and 10255.7 RLU and 10212.3 RLU and 10156.0 RLU
same,SDR No ATP,M -8.78,6765.6 RLU and 6820.8 RLU and 6789.0 RLU and 6870.9 RLU and 6762.2 RLU and 6786.7 RLU
same,SDR + 10 mM ATP,M -9.25,9955.6 RLU and 10061.6 RLU and 10070.3 RLU and 10144.7 RLU and 9901.2 RLU and 9937.3 RLU
same,SDR No ATP,M -9.25,6778.5 RLU and 6738.4 RLU and 6784.4 RLU and 6835.7 RLU and 6812.5 RLU and 6775.6 RLU
same,SDR + 10 mM ATP,M -9.73,9060.9 RLU and 8791.4 RLU and 9269.7 RLU and 9103.3 RLU and 8979.5 RLU and 9077.2 RLU
same,SDR No ATP,M -9.73,6814.0 RLU and 6880.4 RLU and 6857.6 RLU and 6871.7 RLU (2×) and 6648.1 RLU
same,SDR + 10 mM ATP,M -10.21,8039.8 RLU and 7910.0 RLU and 8237.3 RLU and 8034.2 RLU and 8059.8 RLU and 8095.1 RLU
same,SDR No ATP,M -10.21,6863.1 RLU and 6890.7 RLU and 6909.9 RLU and 6915.4 RLU and 6885.5 RLU and 6851.9 RLU
same,SDR + 10 mM ATP,M -10.69,7243.2 RLU and 7192.1 RLU and 7498.0 RLU and 7333.4 RLU and 7436.9 RLU and 7459.7 RLU
same,SDR No ATP,M -10.69,6866.7 RLU and 6851.6 RLU (2×) and 6906.1 RLU and 6919.7 RLU and 6944.4 RLU
same,SDR + 10 mM ATP,M -11.16,6972.7 RLU and 6906.8 RLU (2×) and 7044.6 RLU and 7092.1 RLU and 7092.6 RLU
same,SDR No ATP,M -11.16,6852.5 RLU and 6810.5 RLU and 6865.3 RLU and 6827.1 RLU and 6885.6 RLU and 6853.6 RLU
same,SDR + 10 mM ATP,M -11.64,6987.2 RLU and 6840.0 RLU and 7030.1 RLU and 6788.2 RLU and 7034.1 RLU and 6802.7 RLU
same,SDR No ATP,M -11.64,6913.4 RLU and 6769.3 RLU and 6893.0 RLU and 6868.3 RLU and 6877.6 RLU and 6825.9 RLU
same,"pSDR50, FLuc-C-NLuc (1 nM)",10 μM ATP,9.95 ± 0.05
same,SDR assay statistics Ave RLU,FLuc-C-NLuc (1 nM) + 10 mM ATP,8287.4 RLU
same,SDR assay statistics S:B,FLuc-C-NLuc (1 nM) + 10 mM ATP,1.2
same,SDR assay statistics S:N,FLuc-C-NLuc (1 nM) + 10 mM ATP,3.4
same,SDR assay statistics Z’,FLuc-C-NLuc (1 nM) + 10 mM ATP,-0.259
same,SDR assay statistics Ave RLU,FLuc-C-NLuc (1 nM) No ATP,7850.3 RLU
same,SDR assay statistics S:B,FLuc-C-NLuc (1 nM) No ATP,1.2
same,SDR assay statistics S:N,FLuc-C-NLuc (1 nM) No ATP,2.6
same,SDR assay statistics Z’,FLuc-C-NLuc (1 nM) No ATP,-0.605
same,"1 nM FLuc-C-NLuc + 10 mM ATP, Mean",M -4.48,7523.5 RLU
same,"1 nM FLuc-C-NLuc No ATP, Mean",M -4.48,7116.2 RLU
same,"1 nM FLuc-C-NLuc + 10 mM ATP, Mean",M -4.96,8718.4 RLU
same,"1 nM FLuc-C-NLuc No ATP, Mean",M -4.96,7741.8 RLU
same,"1 nM FLuc-C-NLuc + 10 mM ATP, Mean",M -5.44,9386.1 RLU
same,"1 nM FLuc-C-NLuc No ATP, Mean",M -5.44,7522.2 RLU
same,"1 nM FLuc-C-NLuc + 10 mM ATP, Mean",M -5.91,9658.9 RLU
same,"1 nM FLuc-C-NLuc No ATP, Mean",M -5.91,7037.6 RLU
same,"1 nM FLuc-C-NLuc + 10 mM ATP, Mean",M -6.39,9952.4 RLU
same,"1 nM FLuc-C-NLuc No ATP, Mean",M -6.39,6773.0 RLU
same,"1 nM FLuc-C-NLuc + 10 mM ATP, Mean",M -6.87,10097.2 RLU
same,"1 nM FLuc-C-NLuc No ATP, Mean",M -6.87,6588.7 RLU
same,"1 nM FLuc-C-NLuc + 10 mM ATP, Mean",M -7.35,10226.8 RLU
same,"1 nM FLuc-C-NLuc No ATP, Mean",M -7.35,6681.5 RLU
same,"1 nM FLuc-C-NLuc + 10 mM ATP, Mean",M -7.82,10303.8 RLU
same,"1 nM FLuc-C-NLuc No ATP, Mean",M -7.82,6587.4 RLU
same,"1 nM FLuc-C-NLuc + 10 mM ATP, Mean",M -8.30,10339.6 RLU
same,"1 nM FLuc-C-NLuc No ATP, Mean",M -8.30,6783.7 RLU
same,"1 nM FLuc-C-NLuc + 10 mM ATP, Mean",M -8.78,10244.6 RLU
same,"1 nM FLuc-C-NLuc No ATP, Mean",M -8.78,6799.2 RLU
same,"1 nM FLuc-C-NLuc + 10 mM ATP, Mean",M -9.25,10011.8 RLU
same,"1 nM FLuc-C-NLuc No ATP, Mean",M -9.25,6787.5 RLU
same,"1 nM FLuc-C-NLuc + 10 mM ATP, Mean",M -9.73,9047.0 RLU
same,"1 nM FLuc-C-NLuc No ATP, Mean",M -9.73,6823.9 RLU
same,"1 nM FLuc-C-NLuc + 10 mM ATP, Mean",M -10.21,8062.7 RLU
same,"1 nM FLuc-C-NLuc No ATP, Mean",M -10.21,6886.1 RLU
same,"1 nM FLuc-C-NLuc + 10 mM ATP, Mean",M -10.69,7360.6 RLU
same,"1 nM FLuc-C-NLuc No ATP, Mean",M -10.69,6890.0 RLU
same,"1 nM FLuc-C-NLuc + 10 mM ATP, Mean",M -11.16,7002.6 RLU
same,"1 nM FLuc-C-NLuc No ATP, Mean",M -11.16,6849.1 RLU
same,"1 nM FLuc-C-NLuc + 10 mM ATP, Mean",M -11.64,6913.7 RLU
same,"1 nM FLuc-C-NLuc No ATP, Mean",M -11.64,6857.9 RLU
